Data published in patent US5238938A, “Indole derivatives” (Otsuka Pharmaceutical Co., Ltd., priority 1989, dated 1993).

Tested on: releasing of lysosome from the neutrocytes of rat
Assay: Inhibitory effect against the releasing of lysosome from the neutrocytes of rat
Type: cell-based
Conditions: 0.25 h; rat neutrocytes 5×10^5 cells/ml; FMLP 10^-6 M + cytochalasin B 5 μg/ml; 15 minutes; OD550; read-out: 50% inhibitory concentration (IC50), releasing of lysosome
Description: Inhibitory effect against the releasing of lysosome from the neutrocytes of rat
The neutrocytes of rat were samples from the abdominal cavity of the reat 16 hours after the administration of 10 ml of 1%-casein solution (physiological saline solution).
Reaction of the releasing of lysosome from the neutrocytes of rat was determined by means of the method described in an article by T. Matsumoto, K. Takeshige and S. Minakami: Biochemical and Biophysical Research Communications, Vol. 88, No. 3, pp. 974-979, (1979).
The neutrocytes being sampled were added to Hank's soluiton so as to make the concentraiton thereof as 5×10^5 cells/ml, and the test compound of indole derivative of the present invention was added thereto to make the test group sample. On the other hand, water was added in place of the indole derivative of the present invention to make the control group sample. Each of the test group sample and the control group sample was subjected to pre-incubation at 37° C. for 1 minute.
As to the stimulating agents, 10^-6 M of FMLP (formylmethionyl leucyl phenylalanine) and 5 μg/ml of cytochalasin B were added to the solution. Thus, obtained mixture of the solution was reacted by incubating for 15 minutes. After the incubation, the mixture of the solution was subjected to centrifugation at 2,000 rpm for 10 minutes. The supernatant (0.2 ml) was admixed with 0.5 ml of 0.1M-acetic acid buffer solution (pH 4.5) in which 0.2 mM of phenolphthalein glucuronic acid was dissolved. Then the resulting mixture of the solutions was reacted at 37° C. for 5 hours by incubation. After the reaction, 1N-NaOH solution was added to the reaction mixture so as to make the pH thereof to pH 8-9, and the optical absorbance of both test group samples and control group samples were determined at 550 nm (OD550).
The 50% inhibitory concentration (IC50) values were obtained by calculating as the ratio of OD550 of the test group samples to that of the control group samples.

| IC50 [µg/mL] | Molecule |
| --- | --- |
| 30 | COc1nc(-c2ccccc2)c(=O)n(C)c1Cc1c[nH]c2ccccc12 [Compound A-6a, 6-(indol-3-yl)methyl-5-methoxy-1-methyl-3-phenyl-1,2-dihydropyrazin-2-one] |
| 50 | CC(C)C[C@H]1C(=O)N[C@@H](Cc2c[nH]c3ccccc23)C(=O)N1OCc1ccccc1 [Compound A-35d, (3S,6S)-1-Benzyloxy-3-(indol-3-yl)methyl-6-isobutyl-piperazine-2,5-dione] |
| 12 | COc1c(Cn2ccc3cc(C#N)ccc32)[nH]c(=O)c(CC(C)C)[n+]1[O-] [Compound E-36o, 6-[(5-cyano)indol-1-yl]methyl-3-isobutyl-5-methoxy-1,2-dihydropyrazin-2-one4-oxide] |
| 50 | CC(C)/C=c1\[nH]c(=O)/c(=C/c2c[nH]c3ccccc23)[nH]c1=O [Compound A-34, (Z,Z)-3-(indol-3-yl)methylidene-6-isobutylidenepiperazine-2,5-dione] |
| 20 | COc1nc(Cc2c[nH]c3ccccc23)c(OC)[n+]([O-])c1CC(C)C [Compound A-60, 3-(indol-3-yl)methyl-6-isobutyl-2,5-dimethoxypyrazine 1-oxide] |
| 25 | COC1=N[C@@H](CC(C)C)C(=O)N(C)/C1=C\c1c[nH]c2ccccc12 [Compound A-5b, (3S,Z)-6-(Indol-3-yl)methylidene-3-isobutyl-5-methoxy-1-methyl-1,2,3,6-tetrahydropyrazin-2-one] |
| 30 | COc1nc(CC(C)C)c(=O)n(C)c1Cc1c[nH]c2ccccc12 [Compound A-6b, 6-(Indol-3-yl)methyl-3-isobutyl-5-methoxy-1-methyl-1,2-dihydropyrazin-2-one] |
| 25 | COc1nc(CC(C)C)c(OC)nc1Cc1c[nH]c2ccccc12 [Compound A-19, 3-(Indol-3-yl)methyl-6-isobutyl-2,5-dimethoxypyrazine] |
| 20 | COn1c(CC(C)C)c(Cl)nc(Cc2c[nH]c3ccccc23)c1=O [Compound A-45, 5-chloro-3-(indol-3-yl)methyl-6-isobutyl-1-methoxy-1,2-dihydropyrazin-2-one] |
| 50 | CC(C)Cc1c(=O)[nH]c(Cc2c[nH]c3ccccc23)c[n+]1[O-] [Compound A-84, 6-(indol-3-yl)methyl-3-isobutyl-1,2-dihydropyrazin-2-one 4-oxide] |
| 25 | CC(C)Cc1cnc(Cc2c[nH]c3ccccc23)cn1 [Compound A-27, 2-(indol-3-yl)methyl-5-isobutylpyrazine] |
| 50 | COC(=O)n1cc(Cc2nc(Cl)c(CC(C)C)[n+]([O-])c2OC)c2ccccc21 [Compound A-48, 3-Chloro-2-isobutyl-5-[(1-methoxycarbonyl)indol-3-yl]methyl-6-methoxypyrazineyl-oxide] |
| 10 | CC(C)Cc1nc(Cl)c(Cc2c[nH]c3ccccc23)nc1Cl [Compound A-26, 3-(Indol-3-yl)methyl-2,5-dichloro-6-isobutylpyrazine] |
| 43 | COn1c(C)c(C)nc(Cc2c[nH]c3ccccc23)c1=O [Compound A-53, 3-(Indol-3-yl)methyl-1-methoxy-5,6-dimethyl-1,2-dihydropyrazin-2-one] |
| 20 | COc1c(Cc2c[nH]c3ccccc23)n(C)c(=O)c(CC(C)C)[n+]1[O-] [Compound A-59, 6-(indol-3-yl)methyl-3-isobutyl-5-methoxy-1-methyl-1,2-dihydropyrazin-2-one 4-oxide] |
| 8 | COc1c(Cc2c(-c3ccccc3)[nH]c3ccccc23)[nH]c(=O)c(CC(C)C)[n+]1[O-] [Compound E-34g, 3-Isobutyl-5-methoxy-6-[(2-phenyl)indol-3-yl]methyl-1,2-dihydropyrazin-2-one 4-oxide] |
| 50 | O=C1CN(O)C(=O)[C@H](Cc2c[nH]c3ccccc23)N1 [Compound A-29c, (3S)-1-Hydroxy-3-(indol-3-yl)methylpiperazine-2,5-dione] |
| 50 | CCOc1nc(CC(C)C)c(OCC)nc1Cc1c[nH]c2ccccc12 [Compound A-23, 3-(Indol-3-yl)methyl-2,5-diethoxy-6-isobutylpyrazine] |
| 50 | COc1c(CC2C(=O)Nc3ccccc32)[nH]c(=O)c(CC(C)C)[n+]1[O-] (stereo not drawn) [Compound E-39, 2-Isobutyl-5-methxoy-6-(oxindol-3-yl)methyl-1,2-dihydropyrazin-2-one 4-oxide] |
| 30 | CC(C)C[C@@H]1NC(=O)/C(=C/c2c[nH]c3ccccc23)N(C)C1=O [Compound A-4b, (3S,Z)-6-(Indol-3-yl)methylidene-3-isobutyl-1-methylpiperazine-2,5-dione] |
| 35 | CN1C(=O)C(c2ccccc2)NC(=O)/C1=C/c1c[nH]c2ccccc12 (stereo not drawn) [Compound A-4a, (Z)-6-(indol-3-yl)methylidene-1-methyl-3-phenylpiperazine-2,5-dione] |

| Molecule | IC50 [µg/mL] |
| --- | --- |
| COc1nc(CC(C)C)c(OC(C)=O)nc1Cc1c[nH]c2ccccc12 [Compound A-20, 2-Acetoxy-6-(indol-3-yl)methyl-3-isobutyl-5-methoxypyrazine] | 20 |
| COc1c(Cc2c[nH]c3ccccc23)nc(OC(C)=O)c(CC(C)C)[n+]1[O-] [Compound E-65, 3-Acetoxy-5-(indol-3-yl)methyl-2-isobutyl-6-methoxypyrazine 1-oxide] | 9 |

Same assay, conditions: rat neutrocytes 5×10^5 cells/ml; FMLP 10^-6 M + cytochalasin B 5 μg/ml; 15 minutes; OD550

| 50% inhibitory concentration (IC50), releasing of lysosome [µg/mL] | Molecule |
| --- | --- |
| 20 | 6-(indol-3-yl)methyl-2-isobutyl-5-methyl-1,2-dihydropyrazin-3-one 4-oxide [Compound A-82a] |
